{"source": "patent US20250049829A1", "about": "“NOVEL T[…] TARGETING THE H-RAS ISOFORM WITH G12D MUTATION INVOLVED IN CANCER FORMATION” (ISTANBUL MEDIPOL UNIVERSITESI, priority 2021, published 2025)", "molecular_target": "T1, interaction of H-RASG12D with RAF (Homo sapiens, UniProt P01112, G12D)", "T1 construct": "expressed in transfected cells; host or cells: HEK-293T", "assay": "Active RAS pull-down (GST-Raf-RBD) and western blot in HRASG12D-overexpressing HEK-293T cells", "type": "cell-based", "conditions": "for active RAS levels: 293T-HRASG12D cells, pull-down with RAF, western blot", "experimental": "The candidate molecules determined as a result of molecular dynamics studies were applied to HEK-293T cells at different concentrations in order to determine the cytotoxic and optimum doses for the cells. Optimum dose ranges were determined for each molecule. HEK-293T/HRASG12D cells were treated with Cerubidine […], one of these candidate molecules, and active RAS was examined due to the interaction of RAS protein in cells with RAF. In experiments carried out on this molecule; lysate was collected at different time points from cells treated with non-toxic concentrations of Cerubidine. Active RAS precipitation (Pull Down) and subsequent Western-blot experiments performed on these lysates were used to investigate the effect of Cerubidine molecule on active RAS at different time points for 12 hours in terms of G12D mutation specificity.\nIn the said study, HEK-293T cells with high expression of RAS proteins carrying the G12D mutation were used to examine the effect of candidate ligands on the interaction of H-RASG12D with RAF. First of all, an “Active Ras Pull-Down and Detection Kit (Thermo)” was provided to detect the interaction of the active RAS protein with RAF, and therefore the active RAS proteins involved in this interaction. Since the working principle of the kit is based on the precipitation of RAS proteins interacting with RAF, immunoprecipitation experiments were performed accordingly, since the use of the kit within the scope of this experiment was suitable for the target.\nThe isolated proteins were first treated with GTPyS and GDP, and then bound to the glutathione-containing column with GST-Raf-RBD. Then, the presence of the RAS protein was examined by western blot experiment in the samples collected by elution from the column.\nThen, established 293T-HRAS^G12D cells were treated with Cerubudine, one of the candidate molecules, at different doses (non-cytotoxic), and active RAS proteins were precipitated in the presence of RAF in the lysates collected from cells, following the kit protocol validated in FIG. 5. Then, active RAS, HRAS and RAS^G12D levels were analyzed by western blot at different time points.\nHere, HRASG12D overexpressed cell lines (HEK-293T/HRAS^G12D) were treated with increasing doses of Cerubudine and lysate was obtained for protein isolation at different time points (0.5 h, 1 h, 3 h, 12 h). Active RAS precipitation was performed using isolated proteins and RAS, RASG12D and HRAS protein levels were examined by Western blot. Within the scope of the results obtained, there was a decrease in active RAS protein levels depending on the dose increase, especially in the 12th hour treated samples. Cerubidine treatment in cell lines overexpressing HRASG12D reduced the interaction of active RAS protein with RAF.", "data": [{"compound": "COc1cccc2c1C(=O)c1c(O)c3c(c(O)c1C2=O)C[C@@](O)(C(C)=O)C[C@@H]3O[C@H]1C[C@H](N)[C@H](O)[C@H](C)O1", "note": "[Cerubidine, cerubidine]", "values": [{"measurement": "reduction in G12D mutant HRAS versus wild type HRAS levels", "setting": "5 μM and 10 μM, western blot for active RAS, HRAS and RASG12D", "result": "not wild type HRAS levels"}, {"measurement": "active RAS levels", "setting": "5 μM", "result": "significant decrease"}, {"measurement": "active RAS levels", "setting": "10 μM", "result": "significant decrease"}, {"measurement": "effect on active RAS levels, dose and time of strongest effect", "setting": "10 μM, at the end of 12 hours", "result": "most pronounced effect"}, {"measurement": "interaction of active RAS protein with RAF", "setting": "cell lines overexpressing HRASG12D", "result": "reduced"}, {"measurement": "active RAS protein levels depending on the dose increase", "setting": "increasing doses, 12th hour treated samples, HEK-293T/HRASG12D", "result": "decrease"}, {"measurement": "mutant specificity of decrease in active RAS levels (G12D specific antibody)", "setting": "membrane with G12D specific antibody", "result": "mutant specific"}]}]}
